Reference: patent US8017786B2, “Substituted β-phenyl-α-hydroxy-propanoic acid, synthesis method and use thereof” (Northwest University, priority 2006, dated 2011)

System: anesthetized rats
Test: Blood pressure and left ventricular function of anesthetized rats
Format: in vivo, rat
Parameters: contractive pressure, change ratio: unit not given here
Description: All data were input into PowerLab/8Sp data acquisition and processing system via RM-6000 multi-channel polygraph, and recorded, analyzed and processed by PowerLab/8Sp.
The abdomen was opened 1.5 cm below xiphoid bone to isolate duodenum, a small incision was formed on the duodenum away from blood vessels by ophthalmic scissors, a catheter was inserted and the incision was fixed by suture for administration. After the end of operation and a further waiting period of 30 min, normal data were recorded once the indexes to be monitored were stable.
Test drugs were duodenally administered via the catheter, and the indexes were monitored 5, 15, 30, 60, 90 and 120 min after the administration. The change ratios of the indexes were calculated in accordance with the following formula, and were used for statistic analysis among groups.

[1] = 9 mg/kg duodenal, 60 min after administration
[2] = 9 mg/kg duodenal, 90 min after administration
[3] = 9 mg/kg duodenal, 120 min after administration
[4] = 9 mg/kg duodenal, before administration
[5] = 18 mg/kg duodenal, 5 min after administration
[6] = 18 mg/kg duodenal, 15 min after administration
[7] = 18 mg/kg duodenal, 30 min after administration
[8] = 18 mg/kg duodenal, 60 min after administration
[9] = 18 mg/kg duodenal, 90 min after administration
[10] = 18 mg/kg duodenal, 120 min after administration
[11] = 18 mg/kg duodenal, before administration
[12] = 18 mg/kg, significant at 15, 30, 60, 90 and 120 min

What does the source list for CC1(C)C2CCC1(C)C(OC(=O)C(O)Cc1ccc(O)c(O)c1)C2 (stereo not drawn) [bornyl salvianate ester, bornyl β-(3,4-dihydroxylphenyl)-α-hydroxylpropionate ester]?
contractive pressure, change ratio [1]: −12.63 ± 11.39; diastolic pressure [1]: 59.10 ± 16.07 mmHg; diastolic pressure, change ratio [1]: −14.30 ± 13.75; heart rate [1]: 359.61 ± 39.30 beat/min; heart rate, change ratio [1]: −4.52 ± 7.13; left intraventricular pressure [1]: 119.77 ± 23.09 mmHg; left intraventricular pressure, change ratio [1]: −6.84 ± 8.75; mean arterial pressure [1]: 77.89 ± 18.11 mmHg; mean arterial pressure, change ratio [1]: −13.46 ± 12.43; change-rate of left intraventricular pressure MAX [2]: 5113.5 ± 1356.4 mmHg/s; change-rate of left intraventricular pressure MAX, change ratio [2]: −6.4 ± 13.2; change-rate of left intraventricular pressure, -MAX [2]: −3629.7 ± 1013.3 mm/Hg/s; change-rate of left intraventricular pressure, -MAX, change ratio [2]: −7.2 ± 13.3; contractive pressure [2]: 120.90 ± 31.83 mmHg; contractive pressure, change ratio [2]: −8.80 ± 16.65; diastolic pressure [2]: 63.12 ± 19.81 mmHg; diastolic pressure, change ratio [2]: −8.83 ± 17.11; heart rate [2]: 354.38 ± 62.30 beat/min; heart rate, change ratio [2]: −4.13 ± 17.94; left intraventricular pressure [2]: 122.40 ± 26.58 mmHg; left intraventricular pressure, change ratio [2]: −4.88 ± 11.37; mean arterial pressure [2]: 82.38 ± 23.18 mmHg; mean arterial pressure, change ratio [2]: −8.77 ± 16.66; change-rate of left intraventricular pressure MAX [3]: 4959.8 ± 1399.0 mmHg/s; change-rate of left intraventricular pressure MAX, change ratio [3]: −9.7 ± 11.2; change-rate of left intraventricular pressure, -MAX [3]: −3541.7 ± 917.7 mm/Hg/s; change-rate of left intraventricular pressure, -MAX, change ratio [3]: −9.2 ± 11.3; contractive pressure [3]: 120.85 ± 32.13 mmHg; contractive pressure, change ratio [3]: −9.19 ± 14.65; diastolic pressure [3]: 62.58 ± 22.20 mmHg; diastolic pressure, change ratio [3]: −10.28 ± 17.60; heart rate [3]: 354.09 ± 47.98 beat/min; heart rate, change ratio [3]: −4.62 ± 12.34; left intraventricular pressure [3]: 121.85 ± 26.36 mmHg; left intraventricular pressure, change ratio [3]: −5.47 ± 9.76; mean arterial pressure [3]: 82.00 ± 25.04 mmHg; mean arterial pressure, change ratio [3]: −9.71 ± 15.95; change-rate of left intraventricular pressure MAX [4]: 5435.8 ± 1200.0 mmHg/s; change-rate of left intraventricular pressure, -MAX [4]: −3881.3 ± 735.6 mm/Hg/s; contractive pressure [4]: 132.26 ± 20.00 mmHg; diastolic pressure [4]: 69.21 ± 15.19 mmHg; heart rate [4]: 373.43 ± 41.28 beat/min; left intraventricular pressure [4]: 128.29 ± 18.38 mmHg; mean arterial pressure [4]: 90.23 ± 16.25 mmHg; mean arterial pressure, systolic pressure and diastolic pressure (in words) (9 mg/kg, significant at 15 and 60 min): exhibited a decrease tendency; dp/dt (in words) (9 mg/kg, significant at 60 and 120 min): exhibited a decrease tendency; left intraventricular pressure (in words) (9 mg/kg, significant at 60 min): exhibited a decrease tendency; change-rate of left intraventricular pressure MAX [5]: 5694.7 ± 1264.7 mmHg/s; change-rate of left intraventricular pressure MAX, change ratio [5]: −0.3 ± 9.3; change-rate of left intraventricular pressure, -MAX [5]: −4103.4 ± 981.2 mm/Hg/s; change-rate of left intraventricular pressure, -MAX, change ratio [5]: 0.0 ± 7.8; contractive pressure [5]: 128.34 ± 28.96 mmHg; contractive pressure, change ratio [5]: −0.06 ± 12.42; diastolic pressure [5]: 72.55 ± 16.58 mmHg; diastolic pressure, change ratio [5]: −1.00 ± 14.79; heart rate [5]: 358.56 ± 44.88 beat/min; heart rate, change ratio [5]: 0.22 ± 4.94; left intraventricular pressure [5]: 131.90 ± 18.96 mmHg; left intraventricular pressure, change ratio [5]: −0.01 ± 7.29; mean arterial pressure [5]: 91.15 ± 20.31 mmHg; mean arterial pressure, change ratio [5]: −0.58 ± 13.53; change-rate of left intraventricular pressure MAX [6]: 5470.3 ± 1416.7 mmHg/s; change-rate of left intraventricular pressure MAX, change ratio [6]: −4.7 ± 11.8; change-rate of left intraventricular pressure, -MAX [6]: −3991.9 ± 948.6 mm/Hg/s; change-rate of left intraventricular pressure, -MAX, change ratio [6]: −2.4 ± 9.3; contractive pressure [6]: 120.90 ± 26.54 mmHg; contractive pressure, change ratio [6]: −5.49 ± 14.53; diastolic pressure [6]: 68.87 ± 14.57 mmHg; diastolic pressure, change ratio [6]: −5.45 ± 15.82; heart rate [6]: 356.00 ± 40.82 beat/min; heart rate, change ratio [6]: −0.07 ± 9.93; left intraventricular pressure [6]: 126.28 ± 18.51 mmHg; left intraventricular pressure, change ratio [6]: −4.15 ± 8.95; mean arterial pressure [6]: 86.21 ± 18.29 mmHg; mean arterial pressure, change ratio [6]: −5.52 ± 14.99; change-rate of left intraventricular pressure MAX [7]: 5186.9 ± 1177.3 mmHg/s; change-rate of left intraventricular pressure MAX, change ratio [7]: −8.9 ± 11.5; change-rate of left intraventricular pressure, -MAX [7]: −3923.8 ± 879.8 mm/Hg/s; change-rate of left intraventricular pressure, -MAX, change ratio [7]: −3.9 ± 8.2; contractive pressure [7]: 117.76 ± 22.90 mmHg; contractive pressure, change ratio [7]: −7.74 ± 12.22; diastolic pressure [7]: 66.68 ± 11.95 mmHg; diastolic pressure, change ratio [7]: −7.68 ± 16.90; heart rate [7]: 348.07 ± 39.21 beat/min; heart rate, change ratio [7]: −2.01 ± 12.45; left intraventricular pressure [7]: 124.81 ± 18.94 mmHg; left intraventricular pressure, change ratio [7]: −5.46 ± 7.09; mean arterial pressure [7]: 83.71 ± 15.31 mmHg; mean arterial pressure, change ratio [7]: −7.79 ± 14.45; change-rate of left intraventricular pressure MAX [8]: 4905.3 ± 1047.7 mmHg/s; change-rate of left intraventricular pressure MAX, change ratio [8]: −12.4 ± 18.7; change-rate of left intraventricular pressure, -MAX [8]: −3744.3 ± 851.5 mm/Hg/s; change-rate of left intraventricular pressure, -MAX, change ratio [8]: −7.9 ± 14.0; contractive pressure [8]: 106.97 ± 32.22 mmHg; contractive pressure, change ratio [8]: −16.34 ± 19.90; diastolic pressure [8]: 60.98 ± 16.13 mmHg; diastolic pressure, change ratio [8]: −15.66 ± 21.14; heart rate [8]: 357.22 ± 47.10 beat/min; heart rate, change ratio [8]: 0.39 ± 13.05; left intraventricular pressure [8]: 120.67 ± 23.43 mmHg; left intraventricular pressure, change ratio [8]: −8.71 ± 11.64; mean arterial pressure [8]: 76.31 ± 21.36 mmHg; mean arterial pressure, change ratio [8]: −16.01 ± 20.44; change-rate of left intraventricular pressure MAX [9]: 4676.5 ± 941.1 mmHg/s; change-rate of left intraventricular pressure MAX, change ratio [9]: −16.7 ± 15.5; change-rate of left intraventricular pressure, -MAX [9]: −3659.3 ± 806.3 mm/Hg/s; change-rate of left intraventricular pressure, -MAX, change ratio [9]: −9.2 ± 16.9; contractive pressure [9]: 104.23 ± 32.16 mmHg; contractive pressure, change ratio [9]: −18.68 ± 18.21; diastolic pressure [9]: 60.29 ± 15.88 mmHg; diastolic pressure, change ratio [9]: −16.74 ± 18.37; heart rate [9]: 355.33 ± 9.61 beat/min; heart rate, change ratio [9]: −0.44 ± 6.91; left intraventricular pressure [9]: 117.91 ± 22.68 mmHg; left intraventricular pressure, change ratio [9]: −10.81 ± 11.60; mean arterial pressure [9]: 74.94 ± 21.07 mmHg; mean arterial pressure, change ratio [9]: −17.64 ± 18.17; change-rate of left intraventricular pressure MAX [10]: 5012.6 ± 777.5 mmHg/s; change-rate of left intraventricular pressure MAX, change ratio [10]: −10.9 ± 12.4; change-rate of left intraventricular pressure, -MAX [10]: −3692.1 ± 863.3 mm/Hg/s; change-rate of left intraventricular pressure, -MAX, change ratio [10]: −8.8 ± 16.9; contractive pressure [10]: 113.34 ± 24.47 mmHg; contractive pressure, change ratio [10]: −10.88 ± 16.04; diastolic pressure [10]: 61.54 ± 13.73 mmHg; diastolic pressure, change ratio [10]: −14.64 ± 19.58; heart rate [10]: 357.68 ± 53.26 beat/min; heart rate, change ratio [10]: 0.28 ± 12.04; left intraventricular pressure [10]: 119.85 ± 22.26 mmHg; left intraventricular pressure, change ratio [10]: −9.13 ± 13.16; mean arterial pressure [10]: 78.81 ± 17.04 mmHg; mean arterial pressure, change ratio [10]: −12.96 ± 17.66; change-rate of left intraventricular pressure MAX [11]: 5695.0 ± 1086.8 mmHg/s; change-rate of left intraventricular pressure, -MAX [11]: −4092.0 ± 905.4 mm/Hg/s; contractive pressure [11]: 128.25 ± 23.86 mmHg; diastolic pressure [11]: 73.04 ± 11.87 mmHg; heart rate [11]: 357.28 ± 36.29 beat/min; left intraventricular pressure [11]: 131.93 ± 16.79 mmHg; mean arterial pressure [11]: 91.44 ± 15.44 mmHg; dp/dt (in words) [12]: significantly decreased; left intraventricular pressure (in words) [12]: significantly decreased; mean arterial pressure, systolic pressure and diastolic pressure (in words) (18 mg/kg, significant at 15, 60, 90 and 120 min): significantly decreased
